From publication PMC7018803, “A randomized, placebo-controlled, phase 1 study to evaluate the effects of TAK-063 on ketamine-induced changes in fMRI BOLD signal in healthy subjects” (Psychopharmacology, 2019)

Assays:
[1] = Pharmacokinetics of TAK-063 in plasma after single oral dose; format: in vivo, human
Excerpt: The Statistics Department at Takeda Development Center Americas, Inc., generated a randomization schedule before the start of the study, and this randomization schedule maintained the investigational drug blind. During randomization, subjects were assigned a four-digit randomization sequence that encoded assignment of subjects to the treatment schedule. Subjects were randomized to one of nine treatment schedules and received placebo + ketamine (regimen A) and two of the following three treatment regimens: 3 mg of TAK-063 + ketamine (regimen B), 30 mg of TAK-063 + ketamine (regimen C), and 300 mg of TAK-063 + ketamine (regimen D). […] Treatment sequences are presented in Online Resource Supplementary Table S1. The study consisted of multiple visits with a different treatment protocol on each visit. The visits were standardized and included a screening period (day − 28 to day − 2), check-in (day − 1), a treatment period (days 1), completion of treatment visit (day 2), and a follow-up visit (day 14 ± 3 days after last TAK-063 dose). After each treatment period, subjects stayed overnight at the study site for observation and were discharged on day 2. Each participant completed the study when they completed the follow-up visit after their last treatment2.
Subjects checked in on day − 1 of each treatment period during which vital signs, electrocardiogram (ECG), and laboratory safety tests were repeated. On day 1 of each treatment period, subjects received a 3-, 10-, or 30-mg TAK-063 dose or placebo tablets. Participants then relaxed, slept, or watched movies while remaining in the research environment. Ketamine (0.12 mg/kg intravenous bolus over 60 s followed by a continuous infusion of 0.31 mg/kg/h over approximately 150 min) was administered 4 h after TAK-063 or placebo (Fig. 1). This ketamine dose was based on a previous study that achieved steady-state concentrations of 75 ng/mL and provided a robust BOLD signal with minimal psychotomimetic symptoms (De Simoni et al. [2013]). […]
Blood samples were collected for the determination of TAK-063 and ketamine concentrations, and ketamine concentrations were used to verify intravenous delivery of ketamine. Blood samples for determination of TAK-063 concentration were collected at pre-dose and at 0.5, 2, 3, 4.5, 6, 8, 10, 12, and 24 h post dose. Blood samples for determination of ketamine concentration were collected at 0.5, 1, 2, and 2.5 h after administration of ketamine. The target ketamine concentration was established at 75 ng/mL. PK samples were not collected from the arm in which ketamine was administered.
This study was not powered for any comparison, and the number of subjects was considered to be suitable for fulfilling study objectives. All statistical tests were two-tailed at α = 0.05 level of significance. For the analysis of the neuroimaging battery test results, effect sizes of > 0.3 were considered potentially meaningful, even without power to detect statistical significance. PK parameters of TAK-063 were generated using WinNonlin Version 6.3. fMRI images were analyzed using SPM8 and Matlab. Percent signal change for resting state data was calculated between pre-ketamine and post-ketamine infusion based on a priori ROIs using SPM’s Anatomy Toolbox (Yurgelun-Todd et al. [2016]). Percent signal change for the working memory task was calculated for the task versus baseline in the post-ketamine condition using the same ROI used for resting state (Yurgelun-Todd et al. [2016]). An analysis of variance (ANOVA) model was used to perform the analyses for BOLD signal changes (Yurgelun-Todd et al. [2016]). Cohen’s d effect sizes were calculated as d=μt^−μp^/sp where d is the effect size and μt^ and μp^ are the least-square means for a TAK-063 dose and placebo regimen, respectively, from the ANOVA model. sp is the pooled standard deviation from both regimens. No adjustments were made for multiple comparisons.

[2] = test system: anesthetized rats; set-up: method as in Tomimatsu et al. [2016]; details: ref Tomimatsu et al. [2016], cited from earlier work

COc1cn(-c2ccc(-n3cccn3)cc2F)nc(-c2ccnn2-c2ccccc2)c1=O [TAK-063]
AUC24 ([1]; 3 mg single oral dose): 0.1113 µg·h/mL
Average concentration (Cav) ([1]; 3 mg single oral dose): 0.00463 µg/mL
AUC24 ([1]; 10 mg single oral dose): 0.5492 µg·h/mL
Average concentration (Cav) ([1]; 10 mg single oral dose): 0.0229 µg/mL
AUC24 ([1]; 30 mg single oral dose): 1.2963 µg·h/mL
Average concentration (Cav) ([1]; 30 mg single oral dose): 0.0539 µg/mL
rate of absorption ([1]; oral administration): moderate
Decline of plasma concentrations after Cmax ([1]; single oral dose): declined in a biphasic manner
ketamine-induced increases in percent BOLD signal change in cortical regions ([2]; anesthetized rats, hippocampus, cingulate and retrosplenial cortex): reduced
percent BOLD signal change during the resting state in caudate putamen and substantia nigra ([2]; rat): increased
